Measurements published in PubChem BioAssay (NCI).
Values joined by “and” are separate entries in the source; they are usually repeats but may differ in a detail not shown here. Identical values can stand only once.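 All cell lines were grown in 96-well plates and treated with compound for 48 hours. Here, GI50 denotes the concentration required for 50% inhibition of growth. TGI: total growth inhibition.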

Key:
Assay in all cases: inhibition of tumour cell growth, NCI panel, 48 h
SN12C renal = test system: SN12C renal
NCI-H522 lung = test system: NCI-H522 lung
ACHN renal = test system: ACHN renal
LOX IMVI melanoma = test system: LOX IMVI melanoma
SK-OV-3 ovarian = test system: SK-OV-3 ovarian
SR leukemia = test system: SR leukemia
SF-268 CNS = test system: SF-268 CNS
A549 NSCLC = test system: A549 NSCLC
MDA-MB-435 = test system: MDA-MB-435

Row | SMILES | TGI (SN12C renal) | TGI (NCI-H522 lung) | TGI (ACHN renal) | TGI (LOX IMVI melanoma) | TGI (SK-OV-3 ovarian) | TGI (SR leukemia) | TGI (SF-268 CNS) | TGI (A549 NSCLC) | GI50 (SN12C renal) | GI50 (NCI-H522 lung) | GI50 (MDA-MB-435) | TGI (MDA-MB-435) | GI50 (ACHN renal) | GI50 (LOX IMVI melanoma) | GI50 (SK-OV-3 ovarian) | GI50 (SR leukemia) | GI50 (SF-268 CNS) | GI50 (A549 NSCLC)
1 | O=C(O)CCCCCO | > 100 µM | > 100 µM | > 100 µM | > 100 µM | > 100 µM | > 100 µM | > 100 µM | > 100 µM |  |  |  |  |  |  |  |  |  | 
2 | NCCCC1NC(=O)/C(=C(O)/C=C/C2CCC[C@@H]2CC2SCCS2)C1=O (stereo not given in full) | > 100 µM | 98.4 µM | > 100 µM | > 100 µM | > 100 µM | > 100 µM | > 100 µM | > 100 µM |  |  |  |  |  |  |  |  |  | 
3 | CC1=C(C(=O)CC(=O)C(=O)Nc2ccccc2)Sc2ccccc2N1 | > 100 µM | > 100 µM | > 100 µM | > 100 µM | > 100 µM |  | > 100 µM | > 100 µM |  |  |  |  |  |  |  |  |  | 
4 | CCc1ccc(Nc2cc(=O)[nH]c(=S)n2C)cc1 | > 100 µM | > 100 µM |  | > 100 µM | > 100 µM | > 100 µM | > 100 µM | > 100 µM |  |  |  |  |  |  |  |  |  | 
5 | NC(=S)NNC(=O)CCC(=O)Nc1ccc(Cl)cc1Cl | > 100 µM | > 100 µM | > 100 µM | > 100 µM | > 100 µM |  | > 100 µM | > 100 µM |  |  |  |  |  |  |  |  |  | 
6 | Nc1ncnc2c(C3OC(CO)C(O)C3O)[nH]nc12 (stereo not given) | 1.68 µM and 1.09 µM | 3.74 µM and 6.29 µM |  | 2.22 µM and 0.4 µM | 0.241 µM and 0.6 µM |  | 14 µM and 35.9 µM | 9.43 µM | 0.161 µM | 0.239 µM | 0.356 µM | 8.42 µM | 0.0944 µM | 0.147 µM | 0.0323 µM and 0.0738 µM | 0.0347 µM | 0.204 µM and 0.452 µM | 
7 | CCC[CH2][Ge]([CH2]CCC)([CH2]CCC)[O]C(=O)C(OC)c1ccccc1 (stereo not given) | > 100 µM | > 74.9 µM | > 75.2 µM | 35.1 µM | > 100 µM | > 55.4 µM | > 100 µM | > 100 µM | 46.4 µM | 16.3 µM |  |  | 25.2 µM | 14.3 µM | > 94.2 µM |  | 40.9 µM | > 36.9 µM
8 | CCC[CH2][Sn]([CH2]CCC)([O]C(=O)c1cc(OC)c(OC)cc1OC)[O]C(=O)c1cc(OC)c(OC)cc1OC | 3.29 µM | 1.14 µM | 3 µM | 3.34 µM | 5.51 µM |  | 2.54 µM | 18.3 µM | 1.52 µM | 0.373 µM |  |  | 1.62 µM | 1.04 µM | 2.14 µM |  | 1.23 µM | 5.14 µM
9 | CCOC(=O)N1N=NC2C3OC(C[C@@]3(C#N)OC(C)=O)[C@H]21 (stereo not given in full) | > 100 µM | > 100 µM | > 100 µM | > 100 µM | > 100 µM | > 100 µM | > 100 µM | > 100 µM |  |  |  |  |  |  |  |  |  | 
10 | CCCCCCCCCC1C(C)c2c([nH]c3ccccc23)C2C(=O)N(c3ccccc3)C(=O)C21 (stereo not given) |  |  | 22.8 µM |  | 33.5 µM |  |  | > 100 µM |  |  |  |  |  |  |  |  |  | 
11 | COc1cc2ccnc(-c3c4ccccc4c(N)c4c(OC)c(OC)ccc34)c2cc1OC | 14.1 µM | 15.9 µM | 14 µM | 3.08 µM | 20.4 µM | 6.19 µM | 18.6 µM | 17.3 µM |  |  |  |  |  |  |  |  |  | 
12 | Nc1ncnc2c(C3OC(CO)C(O)C3O)scc12 (stereo not given) | 4.93 µM and 4.07 µM | 0.242 µM and 0.0939 µM | 1.9 µM and 3.66 µM | 1.49 µM and 2 µM | 0.0357 µM and 0.075 µM | 2.49 µM | 33.3 µM | 1.46 µM and 5.46 µM | 0.105 µM |  |  |  | 0.127 µM | 0.0233 µM |  | 0.0621 µM | 1.41 µM | 
13 | CC(=O)OC1C/C(C)=C/CCC(C)/C=C/C2(C)CCC(C(C)(C)O)C12 (stereo not given) | 96.4 µM |  | > 100 µM | > 100 µM | > 100 µM | 47.2 µM | > 100 µM | > 100 µM |  |  |  |  |  |  |  |  |  | 
14 | COc1cc(/C=C/c2ccc(OC(C)=O)cc2)cc(OC)c1OC | > 100 µM | 81.9 µM | 78.6 µM | 94.1 µM |  |  | > 100 µM | 85.2 µM |  |  |  |  |  |  |  |  |  | 
15 | CCC[CH2][Ge]([CH2]CCC)([CH2]CCC)[O]C(=O)C(O)c1ccccc1 (stereo not given) | 23.4 µM | 5.65 µM | 19.8 µM | 13.6 µM | 35.6 µM |  | > 65.1 µM | 26 µM | 4.58 µM | 0.411 µM |  |  | 4.23 µM | 1.85 µM | 9.27 µM |  | 6.74 µM | 2 µM
16 | Cc1ccccc1-c1c(N)nc(N)nc1C(=O)Nc1nccs1 | > 100 µM | > 100 µM | > 100 µM | > 100 µM | > 100 µM | > 100 µM | > 100 µM | > 100 µM |  |  |  |  |  |  |  |  |  | 
17 | CCC1(C(=O)OC)CCc2c(OC)ccc(OC)c2C1=O (stereo not given) | > 100 µM | > 100 µM | > 100 µM | > 100 µM | > 100 µM |  | > 100 µM | > 100 µM |  |  |  |  |  |  |  |  |  | 
